Entries after “also recorded” stand apart in the source; their conditions may differ. Like-named read-outs stand apart in the source and are kept apart here.
Tests used:
CXCR4 = CXCR4 (Homo sapiens, UniProt P61073); experiment: β-arrestin recruitment, 384-well, Tango CXCR4-bla U2OS cells, normalized to SDF-1α; type: cell-based; parameters: host or cells: U2OS; conditions: for EC50: normalized to SDF-1α, read-out: ß-arrestin recruitment EC50
Outline: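 Tango CXCR4-bla U2OS cells plated in DMEM with 1% dialyzed FBS (FreeStyle 293 medium for thiadiazines), incubated overnight at 37 °C, then LiveBLAzer FRET B/G substrate added for 2 h in the dark. Fluorescence read; EC50 and Emax fitted with Hill slope 1.0, normalized to SDF-1α.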

[1] = system: diabetic wounds in Db mice; experiment: Diabetic wound healing, full-thickness excisional 8 mm wounds in Db mice; type: in vivo; conditions: for reduction of wound closure time vs PBS: 10 μM; for wound surface area vs PBS: post-injury day 6
Procedure: The ability of compound UCUF-728 to improve diabetic wound healing in vivo was examined. Full-thickness excisional 8 mm wounds were created in Db mice and were immediately treated with 10 μM UCUF-728 or phosphate-buffered saline (PBS) control. Wound healing over the course of 22 days was monitored. Initial wound size was calculated immediately after wounding, and wound closure was assessed over time as the percentage of initial wound area. […] The effect of UCUF-728 treatment on angiogenesis was assessed using immunohistochemistry for endothelial marker CD31. Representative photos of immunoperoxidase staining for CD31 at 7 days in diabetic wounds treated with PBS or UCUF-728 are shown in FIG. 8A.
The ability of UCUF-965, a thiadiazine compound, to improve diabetic wound healing in vivo was examined. Full-thickness excisional 8 mm wounds were created in Db mice and were immediately treated with 10 μM UCUF-965 or PBS control. Wound healing over the course of 22 days was monitored. Initial wound size was calculated immediately after wounding, and wound closure was assessed over time as the percentage of initial wound area. FIG. 13 indicated the wound healing effect of UCUF-965 topical administration on excision wound model on different days after injury. […] UCUF-965-treated diabetic wounds closed around 14 days after treatment whereas control PBS-treated wounds healed at day 22. UCUF-965 is a promising positive allosteric modulator of CXCR4 signaling to treat diabetic would healing.
All animal experiments were approved by the Institutional Animal Care and Use Committee at the University of Colorado Denver—Anschutz Medical Campus, and experimental protocols followed the guidelines described in the NIH Guide for the Care and Use of Laboratory Animals. In these experiments, 10 week old, female, genetically diabetic C57BKS.Cg-m/Leprdb/J (Db) mice and heterozygous, non-diabetic (non-Db), age-matched female controls from the Jackson Laboratory (Bar Harbor, ME) were used. Mice were anesthetized with inhaled isoflurane. Each mouse was shaved and depilated before wounding. The dorsal skin was swabbed with alcohol and Betadine (Purdue Pharma, Stamford, CT). Each mouse received a single, full-thickness dorsal wound (including panniculus carnosum) with an 8-mm punch biopsy (Miltex Inc, York, PA). After wounding, a Hamilton syringe was used to deliver 50 μL of either 10 uM test compound or PBS, as a control. 10 μL were injected intradermally at 12, 3, 6 and 9 o'clock and at the wound base. […] Mice pictures were taken every other day, wound size was analyzed by Image J. A full-thickness skin sample, centered on the wound, was harvested 3 and 7 days after surgery (n=5 per timepoint).

Sequence of CXCR4 (P61073 whole entry): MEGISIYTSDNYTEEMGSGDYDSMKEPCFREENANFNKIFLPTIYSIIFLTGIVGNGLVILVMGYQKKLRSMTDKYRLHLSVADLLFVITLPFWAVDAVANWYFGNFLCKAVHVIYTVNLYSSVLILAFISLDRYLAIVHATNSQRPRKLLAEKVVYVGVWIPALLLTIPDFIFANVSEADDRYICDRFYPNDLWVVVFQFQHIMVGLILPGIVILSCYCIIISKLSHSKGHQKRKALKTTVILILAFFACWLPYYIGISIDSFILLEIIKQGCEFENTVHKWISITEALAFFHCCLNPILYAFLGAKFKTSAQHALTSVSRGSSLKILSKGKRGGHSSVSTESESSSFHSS

| Emax (CXCR4; U2OS, read-out: ß-arrestin recruitment Emax (%)) | SMILES | β-arrestin recruitment activity (CXCR4) | EC50 (CXCR4) | reduction of wound closure time vs PBS [1] | wound surface area vs PBS [1] | β-arrestin recruitment activity (CXCR4; listed as UCUF-965) |
| --- | --- | --- | --- | --- | --- | --- |
| 30% | COc1ccc(OC)c(NS(=O)(=O)c2ccc(-c3cnc(C4CC4)o3)cc2)c1 [Oxazole Entry 19, 4-(2-Cyclopropyloxazol-5-yl)-N-(2,5-dimethoxyphenyl)benzenesulfonamide] | dose-dependent partial activation of β-arrestin recruitment | 500 nM | 36% | decrease in wound surface area |  |
|  | CCOc1ccccc1-c1nnc2n1N=C(c1ccc(N3CCCC3)cc1)CS2 [Thiadiazine Entry 23, 3-(2-ethoxyphenyl)-6-(4-(pyrrolidin-1-yl)phenyl)-7H-[1,2,4]triazolo[3,4-b][1,3,4]thiadiazine] |  | 20 nM | 36% | decrease in wound surface area | dose-dependent partial activation of β-arrestin recruitment; also recorded: did not inhibit the action of SDF-1α |
